By melting point is commonly meant the temperature, or range, at which the solid turns liquid. As usually defined, the IC50 is the point on the concentration scale where inhibition reaches its midpoint.

Where two headings read alike, the source gives them in different places. A value given as a limit tells only on which side of the number the result lay.

One series concerns the target T1, recombinant human LDHA (Homo sapiens, UniProt P00338).
T1 construct: purchased Abcam
The experiment in a line: hLDHA enzymatic activity assay (kinetic spectrofluorimetric, β-NADH fluorescence decrease). In kind it is biochemical. Conditions: for IC50: mean ± SD of n = 3 replicates; for Selectivity Rate (IC50 hLDHB/hLDHA): ratio IC50 hLDHB / IC50 hLDHA. On the procedure: (§1) Briefly, the decrease in the coenzyme β-NADH fluorescence (λemission = 460 nm) was measured for 10 min, at different concentration of inhibitors, and its slope was compared with the one obtained when there were not inhibitors added (100% enzymatic activity).
The enzymatic assay was conducted on 96-well microplates and the decrease in the β-NADH fluorescence (λexcitation = 340 nm; λemission = 460 nm) was detected in a TECAN Infinite 200 Pro M Plex fluorescent plate reader (Tecan Instrument, Inc.) at 28 °C. The activity was determined according to our previously described protocol. The final volume in each well was set to 200 µL using 100 mM potassium phosphate buffer, 0.041 units/mL LDHA, 155 µM β-NADH, 1 mM pyruvate (saturated conditions), and DMSO solutions (5%, v/v) of pure compounds at concentrations in the range of 1–600 µM. The addition of pyruvate allowed the beginning of the reaction and fluorescence was registered every 60 s during 10 min. A lineal time interval was selected to calculate the slope at every single concentration. […] The slope obtained at each concentration was compared to the one obtained for the 100% enzymatic activity control to determine the corresponding enzymatic activity. A nonlinear regression analysis in GraphPad Prism version 9.00 for Windows (GraphPad Software, La Jolla, CA, USA) was used for dose response curve, fitting of logarithm of inhibitor concentration vs. normalized enzymatic activity, to calculate IC50 values (Supplementary Material section). All measurements were made in triplicate and data were expressed as the mean ± SD.

Another series concerns the target T2, recombinant human LDHB (Homo sapiens, UniProt P07195).
T2 construct: purchased Abcam
The series can be described thus: hLDHB enzymatic activity assay (same fluorimetric protocol). Type of series: biochemical. The conditions noted are these: mean ± SD of n = 3 replicates; read-out: hLDHB IC50. As to the method: as §1
The ability of the synthesized compounds to inhibit the hLDHB enzyme was measured using recombinant human LDHB (95%, specific activity >300 units/mg and concentration of 1.0 mg/mL, Abcam, Cambridge, UK) following the same fluorimetric protocol described in Section 3.4.

Where [1] appears, read: 1 mM pyruvate, 155 µM β-NADH, pH 7.3, 28 °C, read-out: hLDHA IC50.
Setting [2] is: supplementary dose response curves, µM only on the axis label, read-out: IC50 (hLDHA inhibition curve).

T2 sequence (P07195 whole entry): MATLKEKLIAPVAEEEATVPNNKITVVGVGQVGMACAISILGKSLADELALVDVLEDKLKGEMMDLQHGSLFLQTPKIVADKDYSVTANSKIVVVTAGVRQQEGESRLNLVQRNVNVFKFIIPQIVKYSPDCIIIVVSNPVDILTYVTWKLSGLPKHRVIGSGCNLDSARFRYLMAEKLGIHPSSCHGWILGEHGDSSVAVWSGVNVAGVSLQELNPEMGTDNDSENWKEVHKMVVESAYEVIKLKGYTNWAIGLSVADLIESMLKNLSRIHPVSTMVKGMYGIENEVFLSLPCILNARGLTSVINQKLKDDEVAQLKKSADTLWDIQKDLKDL

`COc1ccc(C23CC(c4cc(Cl)ccc4O2)c2c(O)cc(O)cc2O3)cc1OC` (racemic) [(±)-44, 2-(3′,4′-Dimethoxyphenyl)-6-chlorochromane-(4→4″, 2→O-5″)-phloroglucinol] yielded a melting point of 257 to 259 °C. In the case of `O=c1oc2ccccc2c2c1C1CC(c3ccc(O)c(O)c3)(Oc3ccc([N+](=O)[O-])cc31)O2` (racemic) [(±)-46, 2-(3′,4′-Dihydroxyphenyl)-6-nitrochromane-(4→3″, 2→O-4″)-4″-hydroxycoumarin], the melting point is 128 to 130 °C (dec.). Regarding `O=c1oc2ccccc2c2c1C1CC(c3ccc(O)cc3)(Oc3ccc([N+](=O)[O-])cc31)O2` (racemic) [(±)-52, 2-(4′-Hydroxyphenyl)-6-nitrochromane-(4→3″, 2→O-4″)-4″-hydroxycoumarin], the melting point was in the range of 275 to 278 °C. The IC50 at recombinant human LDHA (setting [1]) is 36.9 ± 1.2 µM. For the same compound, the “Selectivity Rate (IC50 hLDHB/hLDHA)” value at recombinant human LDHA came out at 1.8. Moreover, the IC50 at recombinant human LDHA (setting [2]) was determined as 36.9 ± 1.2 µM.

`O=c1oc2ccccc2c2c1C1CC(c3ccc(O)cc3)(Oc3ccc(Cl)cc31)O2` (racemic) [(±)-53, 2-(4′-Hydroxyphenyl)-6-chlorochromane-(4→3″, 2→O-4″)-4″-hydroxycoumarin]: the melting point was 250 to 252 °C (dec.).

`O=C1C2=C(C(=O)c3ccccc31)C1CC(c3ccc(O)c(O)c3)(O2)Oc2ccccc21` (racemic) [(±)-54, 2-(3′,4′-Dihydroxyphenyl)-chromane-(4→3″, 2→O-2″)-2″-hydroxy-1″,4″-naphthoquinone]: the melting point is 190 to 192 °C (dec.). For `COc1ccc(C23CC(C4=C(O2)C(=O)c2ccccc2C4=O)c2cc([N+](=O)[O-])ccc2O3)cc1OC` (racemic) [(±)-58, 2-(3′.4′-Dimethoxyphenyl)-6-nitrochromane-(4→3″, 2→O-2″)-2″-hydroxy-1″,4″-naphthoquinone], the melting point lay in the range of 148 to 150 °C. Regarding `COc1ccc(C23CC(C4=C(O2)C(=O)c2ccccc2C4=O)c2cc(Cl)ccc2O3)cc1OC` (racemic) [(±)-59, 2-(3′,4′-Dimethoxyphenyl)-6-chlorochromane-(4→3″, 2→O-2″)-2″-hydroxy-1″,4″-naphthoquinone], the melting point lay within 124 to 127 °C.

In the case of `O=C1C2=C(C(=O)c3ccccc31)C1CC(c3ccc(O)cc3)(O2)Oc2ccc([N+](=O)[O-])cc21` (racemic) [(±)-60, 2-(4′-Hydroxyphenyl)-6-nitrochromane-(4→3″, 2→O-2″)-2″-hydroxy-1″,4″-naphthoquinone], the melting point was 270 to 273 °C (dec.). For the compound `O=C1C2=C(C(=O)c3ccccc31)C1CC(c3ccc(O)cc3)(O2)Oc2ccc(Cl)cc21` (racemic) [(±)-61, 2-(4′-Hydroxyphenyl)-6-chlorochromane-(4→3″, 2→O-2″)-2″-hydroxy-1″,4″-naphthoquinone], the melting point was in the range of 249 to 251 °C. Compound `COc1ccc(C23CC(C4=C(CC(c5ccc(Cl)cc5)OC4=O)O2)c2ccccc2O3)cc1OC` (racemic) [(±)-63a, 2-(3′,4′-Dimethoxyphenyl)-chromane-(4→3″, 2→O-4″)-6″-(4‴-chlorophenyl)-4″-hydroxy-5″,6″-dihydro-2H-pyran-2″-one] came in with a melting point of 110 to 112 °C.

With `COc1ccc(C23CC(C4=C(CC(c5ccccc5)OC4=O)O2)c2cc(Cl)ccc2O3)cc1OC` (racemic) [(±)-68a, 2-(3′,4′-Dimethoxyphenyl)-6-chlorochromane-(4→3″, 2→O-4″)-4″-hydroxy-6″-phenyl-5″,6″-dihydro-2H-pyran-2″-one], the melting point lay in the range of 106 to 108 °C. On to `COc1ccc(C2CC3=C(C(=O)O2)C2CC(c4ccc(OC)c(OC)c4)(O3)Oc3ccc(Cl)cc32)cc1` (racemic) [(±)-70b, 2-(3′.4′-Dimethoxyphenyl)-6-chlorochromane-(4→3″, 2→O-4″)-4″-hydroxy-6″-(4‴-methoxyphenyl)-5″,6″-dihydro-2H-pyran-2″-one], for which the IC50 at recombinant human LDHA (setting [1]) was determined as 20.2 ± 0.7 µM; on recombinant human LDHA (setting [2]), 20.2 ± 0.7 µM; on recombinant human LDHB, 292 ± 4.1 µM. The figures for the “Selectivity Rate (IC50 hLDHB/hLDHA)” value at recombinant human LDHA and at recombinant human LDHA (listed as 70b) were 14.5 and over 10, respectively.

The record behind these values is PMC10298284, “Synthesis and hLDH Inhibitory Activity of Analogues to Natural Products with 2,8-Dioxabicyclo[3.3.1]nonane Scaffold” (International Journal of Molecular Sciences, 2023).
